From patent publication US9931347B2, “Pharmaceutical compound” (IOmet Pharma Ltd., priority 2013, dated 2018)

What was measured:
Recombinant human IDO = Recombinant human IDO (Homo sapiens, UniProt P14902); experiment: hIDO biochemical coupled assay; details: 45 μM L-tryptophan, coupled with kynurenine formamidase
Procedure, shortened: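 Recombinant human IDO incubated in 50 mM KPO4 (pH 7.0), 0.5 mM EGTA, 0.5 mM EDTA, 0.05% Triton X100, 20 mM ascorbate, 10 μM methylene blue, 500 U/ml catalase and 50 μg/ml kynurenine formamidase. N-formylkynurenine converted to kynurenine, quantified by fluorescence after Ehrlich's reagent.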

[1] = target: T1, IDO (SKOV3 human ovarian adenocarcinoma cells, IFN-γ induced) (Homo sapiens, UniProt P14902); experiment: SKOV3 Kynurenine cell based assay; details: IDO induced by 500 ng/ml IFN-γ, 500 μM L-tryptophan, 48 hours
T1 construct: IDO expression was induced in the SKOV3 cells by the addition of 500 ng/ml IFN-γ; endogenous in cells; host or cells: SKOV3 human ovarian adenocarcinoma cells, induced with IFN-γ
T1 sequence (P14902 whole entry): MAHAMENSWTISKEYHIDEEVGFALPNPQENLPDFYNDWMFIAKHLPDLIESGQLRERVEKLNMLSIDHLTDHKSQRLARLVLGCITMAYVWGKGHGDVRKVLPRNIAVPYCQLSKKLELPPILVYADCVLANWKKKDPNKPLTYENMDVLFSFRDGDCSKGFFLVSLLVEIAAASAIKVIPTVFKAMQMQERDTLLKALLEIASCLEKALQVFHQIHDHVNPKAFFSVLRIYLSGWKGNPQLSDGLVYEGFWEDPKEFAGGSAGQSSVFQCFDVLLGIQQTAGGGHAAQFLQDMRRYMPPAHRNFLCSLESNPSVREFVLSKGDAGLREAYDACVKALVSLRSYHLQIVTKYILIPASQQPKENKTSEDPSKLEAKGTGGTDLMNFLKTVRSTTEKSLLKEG
Procedure, shortened: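 Kynurenine in the supernatant, detected by Ehrlich's reagent, served as read-out after 48 h at 37° C with or without test compound. SKOV3 cells (40,000/well) were grown in phenol red-free RPMI, 10% FCS, 2 mM L-glutamine, 500 μM L-tryptophan, with 500 ng/ml IFN-γ to induce IDO.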

Recombinant human TDO = Recombinant human TDO (Homo sapiens, UniProt P48775); experiment: hTDO biochemical coupled assay; details: 330 μM L-tryptophan, coupled with kynurenine formamidase
Sequence of Recombinant human TDO (P48775 whole entry): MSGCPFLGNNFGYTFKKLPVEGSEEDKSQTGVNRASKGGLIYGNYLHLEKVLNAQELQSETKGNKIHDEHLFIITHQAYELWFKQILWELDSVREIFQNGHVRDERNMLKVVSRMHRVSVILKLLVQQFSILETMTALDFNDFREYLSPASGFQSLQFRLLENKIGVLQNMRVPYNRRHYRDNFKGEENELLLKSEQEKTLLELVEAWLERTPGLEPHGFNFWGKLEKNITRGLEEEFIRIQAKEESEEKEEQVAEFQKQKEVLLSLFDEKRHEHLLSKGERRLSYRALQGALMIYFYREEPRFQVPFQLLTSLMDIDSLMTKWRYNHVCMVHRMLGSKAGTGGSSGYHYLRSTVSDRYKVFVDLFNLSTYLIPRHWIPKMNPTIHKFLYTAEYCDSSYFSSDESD
Experimental: Exemplary compounds of the invention were prepared, and tested to determine their effect as TDO and/or IDO inhibitors. Two different assays were employed: 1. a cell-based assay for detecting the effect of test compounds on kynurenine production in two different cancer cell types. This assay utilised cancer cells which expressed either TDO or IDO and as such was used as a means of testing compound activity at these two enzymes in a cell-based context. 2. a TDO and IDO biochemical coupled assay which utilised recombinantly produced and purified TDO and IDO enzymes in combination with the enzyme formamidase. This coupled enzyme system allowed conversion of N-formylkynurenine produced by TDO or IDO activity to kynurenine which was then quantified by fluorescence following addition of Erhlich's Reagent The protocols for these are set out below.
Recombinant human IDO or TDO was incubated in 50 mM KPO4 (pH 7.0), 0.5 mM EGTA, 0.5 mM EDTA, 0.05% Triton™ X100, 20 mM ascorbate, 10 μM methylene blue, 500 U/ml catalase, 50 μg/ml KynB (kynurenine formamidase). TDO assays were carried out in the presence of 330 μM L-tryptophan, while IDO assays had the addition of 45 μM L-tryptophan. After incubation for 17 minutes at room temperature the reactions were stopped by the addition of Erhlich's reagent and incubated at room temperature for 5 minutes before the fluorescence was read (Ex475, Em530).

[2] = target: T2, TDO (A172 human glioblastoma cells) (Homo sapiens, UniProt P48775); experiment: A172 Kynurenine cell based assay; details: 500 μM L-tryptophan, 48 hours, kynurenine by Erhlich's reagent
T2 construct: This assay utilised cancer cells which expressed either TDO or IDO; endogenous in cells; host or cells: A172 human glioblastoma cells
T2 sequence (P48775 whole entry): as above
Procedure, shortened: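 Kynurenine released into the supernatant was quantified by absorbance at 490 nm after 5 min with Erhlich's reagent. A172 cells were seeded at 30,000/well and exposed to test compound for 48 hours at 37° C. in phenol red-free RPMI containing 500 μM L-tryptophan, 10% FCS and 2 mM L-glutamine.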

Sequence of Recombinant human IDO (P14902 whole entry): as the sequence (P14902 whole entry) above

| Structure (SMILES) | hIDO biocehmical assay pIC50 (Recombinant human IDO) | SKOV3 Kynurenine cell based assay pIC50 [1] | hTDO biochemical assay pIC50 (Recombinant human TDO) | A172 Kynurenine cell based assay pIC50 [2] |
| --- | --- | --- | --- | --- |
| CS(=O)(=O)N1CCC(C2C(=O)Nc3cc(F)ccc32)CC1 (stereo not shown) [Compound 178] | +− (+− = pIC50 <4.00) | ++ (++ = pIC50 5.00-5.99) | +− (+− = pIC50 <4.00) | +− (+− = pIC50 <4.00) |
| O=C(C1CC1)N1CCC(c2c[nH]c3ccccc23)CC1 [Compound 71] | +− (+− = pIC50 <4.00) | +− (+− = pIC50 <4.00) | +− (+− = pIC50 <4.00) | + (+ = pIC50 4.00-4.99) |
| CCNC(=O)N1CCC(c2c[nH]c3ccccc23)CC1 [Compound 68] | +− (+− = pIC50 <4.00) | +− (+− = pIC50 <4.00) | ++ (++ = pIC50 5.00-5.99) | + (+ = pIC50 4.00-4.99) |
| Cc1ccc2[nH]cc(C3CCN(S(=O)(=O)c4ccc(Br)cc4OC(F)(F)F)CC3)c2c1 [Compound 34] | +− (+− = pIC50 <4.00) | + (+ = pIC50 4.00-4.99) | +− (+− = pIC50 <4.00) | + (+ = pIC50 4.00-4.99) |
| COc1ccc2[nH]cc(C3CCN(S(=O)(=O)c4ccc(Br)cc4OC(F)(F)F)CC3)c2c1 [Compound 30] | +− (+− = pIC50 <4.00) | + (+ = pIC50 4.00-4.99) | +− (+− = pIC50 <4.00) | +− (+− = pIC50 <4.00) |
| Cc1cccc2c(C3CCN(C(=O)c4ccccc4OC(F)(F)F)CC3)c[nH]c12 [Compound 59] | +− (+− = pIC50 <4.00) | + (+ = pIC50 4.00-4.99) | +− (+− = pIC50 <4.00) | + (+ = pIC50 4.00-4.99) |
| CC(C)S(=O)(=O)N1CCC(c2c[nH]c3ccccc23)CC1 [Compound 73] | +− (+− = pIC50 <4.00) | +− (+− = pIC50 <4.00) | +− (+− = pIC50 <4.00) | + (+ = pIC50 4.00-4.99) |
| CS(=O)(=O)N1CC=C(c2c[nH]c3cc(F)c(F)cc23)CC1 [Compound 168] | +− (+− = pIC50 <4.00) | + (+ = pIC50 4.00-4.99) | ++ (++ = pIC50 5.00-5.99) | +++ (+++ = pIC50 ≥6.00) |
| O=C(c1cccs1)N1CCC(c2c[nH]c3ccccc23)CC1 [Compound 11] | +− (+− = pIC50 <4.00) | + (+ = pIC50 4.00-4.99) | +− (+− = pIC50 <4.00) | + (+ = pIC50 4.00-4.99) |
| Cn1cnc(S(=O)(=O)N2CCC(c3c[nH]c4ccccc34)CC2)c1 [Compound 4] | +− (+− = pIC50 <4.00) | +− (+− = pIC50 <4.00) | + (+ = pIC50 4.00-4.99) | + (+ = pIC50 4.00-4.99) |
| Cc1[nH]c2ccccc2c1C1CCN(C(=O)C2CCCO2)CC1 (stereo not shown) [Compound 17] | +− (+− = pIC50 <4.00) | + (+ = pIC50 4.00-4.99) | +− (+− = pIC50 <4.00) | +− (+− = pIC50 <4.00) |
| COCC(=O)N1CCC(c2c[nH]c3ccccc23)CC1 [Compound 84] | +− (+− = pIC50 <4.00) | +− (+− = pIC50 <4.00) | +− (+− = pIC50 <4.00) | + (+ = pIC50 4.00-4.99) |
| Cc1cc(C(=O)N2CCC(c3c(C)[nH]c4ccccc34)CC2)no1 [Compound 8] | +− (+− = pIC50 <4.00) | + (+ = pIC50 4.00-4.99) | +− (+− = pIC50 <4.00) | +− (+− = pIC50 <4.00) |
| CC(=O)N1CC=C(c2c[nH]c3ccc(Cl)cc23)CC1 [Compound 165] | +− (+− = pIC50 <4.00) | + (+ = pIC50 4.00-4.99) | + (+ = pIC50 4.00-4.99) | ++ (++ = pIC50 5.00-5.99) |
| CCOC(=O)N1CCC(c2c[nH]c3ccccc23)CC1 [Compound 66] | +− (+− = pIC50 <4.00) | + (+ = pIC50 4.00-4.99) | +− (+− = pIC50 <4.00) | + (+ = pIC50 4.00-4.99) |
| CC(=O)N1CC=C(c2n[nH]c3ccccc23)CC1 [Compound 102] | +− (+− = pIC50 <4.00) | +− (+− = pIC50 <4.00) | + (+ = pIC50 4.00-4.99) | +− (+− = pIC50 <4.00) |
| O=S(=O)(c1cccs1)N1CC=C(c2c[nH]c3ncccc23)CC1 [Compound 13] | +− (+− = pIC50 <4.00) | ++ (++ = pIC50 5.00-5.99) | +− (+− = pIC50 <4.00) | +− (+− = pIC50 <4.00) |
| CC(=O)N1CCC(C2CNc3cc(F)ccc32)CC1 (stereo not shown) [Compound 179] | +− (+− = pIC50 <4.00) | +− (+− = pIC50 <4.00) | +− (+− = pIC50 <4.00) | + (+ = pIC50 4.00-4.99) |
| Cc1ccc2[nH]cc(C3CCN(S(C)(=O)=O)CC3)c2c1 [Compound 85] | +− (+− = pIC50 <4.00) | ++ (++ = pIC50 5.00-5.99) | +− (+− = pIC50 <4.00) | ++ (++ = pIC50 5.00-5.99) |
| Cc1cccc2c(C3CCN(S(=O)(=O)c4ccc5c(c4)CN(C(=O)C(F)(F)F)CC5)CC3)c[nH]c12 [Compound 37] | +− (+− = pIC50 <4.00) | + (+ = pIC50 4.00-4.99) | +− (+− = pIC50 <4.00) | +− (+− = pIC50 <4.00) |
| Cc1ccc2[nH]cc(C3CCN(S(=O)(=O)c4ccc(C(C)(C)C)cc4)CC3)c2c1 [Compound 58] | +− (+− = pIC50 <4.00) | + (+ = pIC50 4.00-4.99) | +− (+− = pIC50 <4.00) | + (+ = pIC50 4.00-4.99) |
| CC(=O)N1CCC(c2c[nH]c3ncccc23)CC1 [Compound 99] | +− (+− = pIC50 <4.00) | + (+ = pIC50 4.00-4.99) | +− (+− = pIC50 <4.00) | +− (+− = pIC50 <4.00) |
